Where two headings read alike, the source gives them in different places.
Key:
Assay type in all cases: biochemical
[1] = biological target: T1, GST fusion human ERK2 protein (Homo sapiens, UniProt P28482); assay: ERK2 enzyme assay (2); details: read-out: ERK2 enzyme inhibitory activity (2)
T1 construct: purchased Carna Biosciences, Inc; host or cells: E. coli expression system
How it was run: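 GST-tagged human ERK2 expressed in E. coli (1.25 nmol/L) was preincubated with compound for 15 min at room temperature in pH 7.5 Hepes buffer with MgCl2, DTT and Brij35. Reaction with FL-Peptide 8 (final 4.25 μmol/L) and ATP (final 1 mmol/L) ran 120 min at 25 °C; EDTA stopped it, and phosphorylated peptide was quantified by mobility-shift separation to derive IC50.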

[2] = biological target: T1, GST fusion human ERK2 protein; assay: ERK2 enzyme assay (1); details: read-out: ERK2 enzyme inhibitory activity (1)
How it was run: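 Enzyme (2.5 nmol/L, E. coli-expressed) preincubated with compound 15 min at room temperature in HEPES/MgCl2/DTT/Brij35 buffer, pH 7.5; reaction with 4.25 μmol/L FL-Peptide 8 and 43.1 μmol/L ATP for 120 min at 25 °C. Phosphorylated peptide fraction quantified by mobility-shift separation after EDTA stop; IC50 calculated.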

human PI3Kα protein = biological target: T2, human PI3Kα protein (Homo sapiens, UniProt P42336); assay: PI3Kα enzyme assay (ADP-Glo); details: read-out: PI3Kα enzyme inhibitory activity
T2 construct: purchased Carna Biosciences, Inc; host or cells: baculovirus expression system
How it was run: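 Biotinylated human PI3Kα (baculovirus-expressed, 4.5 nmol/L) pre-incubated 15 min with compound in Tris-HCl pH 7.5, MgCl2, BSA; reaction 60 min at 25° C with 50 μmol/L PIP2 and 100 μmol/L ATP final. ADP quantified by ADP-Glo luminescence; IC50 calculated.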

[3] = 2.5 nmol/L ERK2, ATP 43.1 μmol/L
[4] = 4.5 nmol/L PI3Kα, PIP2 50 μmol/L, ATP 100 μmol/L

T1 sequence (P28482 whole entry, the tested form may be a part): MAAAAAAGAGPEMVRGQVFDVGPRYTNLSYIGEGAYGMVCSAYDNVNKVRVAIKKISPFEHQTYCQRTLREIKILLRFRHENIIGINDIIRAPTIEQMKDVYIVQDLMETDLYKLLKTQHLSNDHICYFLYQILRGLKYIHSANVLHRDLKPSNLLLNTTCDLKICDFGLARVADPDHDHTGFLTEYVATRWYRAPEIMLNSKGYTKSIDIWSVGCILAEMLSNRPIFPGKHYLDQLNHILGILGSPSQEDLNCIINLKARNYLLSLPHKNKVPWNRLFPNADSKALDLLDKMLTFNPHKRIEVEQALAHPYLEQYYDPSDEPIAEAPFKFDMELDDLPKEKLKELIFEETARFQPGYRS
T2 sequence (P42336 whole entry): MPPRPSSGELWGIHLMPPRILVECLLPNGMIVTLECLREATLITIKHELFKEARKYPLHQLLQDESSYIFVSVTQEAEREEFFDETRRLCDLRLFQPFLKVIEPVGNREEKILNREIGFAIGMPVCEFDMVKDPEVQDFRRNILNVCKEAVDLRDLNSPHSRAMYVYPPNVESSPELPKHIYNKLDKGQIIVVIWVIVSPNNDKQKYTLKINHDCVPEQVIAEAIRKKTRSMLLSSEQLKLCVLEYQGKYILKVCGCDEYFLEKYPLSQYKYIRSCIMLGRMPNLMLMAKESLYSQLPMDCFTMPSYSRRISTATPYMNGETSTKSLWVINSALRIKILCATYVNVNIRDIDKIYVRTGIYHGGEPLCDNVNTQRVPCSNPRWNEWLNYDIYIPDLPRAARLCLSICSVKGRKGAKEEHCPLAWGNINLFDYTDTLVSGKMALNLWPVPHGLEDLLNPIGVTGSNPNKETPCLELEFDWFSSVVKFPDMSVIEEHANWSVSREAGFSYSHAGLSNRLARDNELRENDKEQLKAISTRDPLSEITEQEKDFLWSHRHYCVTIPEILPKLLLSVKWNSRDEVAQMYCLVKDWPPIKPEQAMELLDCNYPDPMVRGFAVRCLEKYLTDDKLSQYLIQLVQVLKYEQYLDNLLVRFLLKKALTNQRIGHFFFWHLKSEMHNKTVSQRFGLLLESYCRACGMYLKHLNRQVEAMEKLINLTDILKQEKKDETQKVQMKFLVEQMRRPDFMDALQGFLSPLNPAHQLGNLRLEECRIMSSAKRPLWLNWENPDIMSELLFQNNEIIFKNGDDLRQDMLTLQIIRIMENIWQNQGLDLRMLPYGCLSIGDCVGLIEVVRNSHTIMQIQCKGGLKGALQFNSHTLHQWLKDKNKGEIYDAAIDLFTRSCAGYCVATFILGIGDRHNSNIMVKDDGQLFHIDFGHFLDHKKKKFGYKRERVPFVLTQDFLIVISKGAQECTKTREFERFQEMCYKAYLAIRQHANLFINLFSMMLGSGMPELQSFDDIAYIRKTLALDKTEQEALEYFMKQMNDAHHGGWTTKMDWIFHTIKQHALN
T2 sequence (P27986 whole entry partner): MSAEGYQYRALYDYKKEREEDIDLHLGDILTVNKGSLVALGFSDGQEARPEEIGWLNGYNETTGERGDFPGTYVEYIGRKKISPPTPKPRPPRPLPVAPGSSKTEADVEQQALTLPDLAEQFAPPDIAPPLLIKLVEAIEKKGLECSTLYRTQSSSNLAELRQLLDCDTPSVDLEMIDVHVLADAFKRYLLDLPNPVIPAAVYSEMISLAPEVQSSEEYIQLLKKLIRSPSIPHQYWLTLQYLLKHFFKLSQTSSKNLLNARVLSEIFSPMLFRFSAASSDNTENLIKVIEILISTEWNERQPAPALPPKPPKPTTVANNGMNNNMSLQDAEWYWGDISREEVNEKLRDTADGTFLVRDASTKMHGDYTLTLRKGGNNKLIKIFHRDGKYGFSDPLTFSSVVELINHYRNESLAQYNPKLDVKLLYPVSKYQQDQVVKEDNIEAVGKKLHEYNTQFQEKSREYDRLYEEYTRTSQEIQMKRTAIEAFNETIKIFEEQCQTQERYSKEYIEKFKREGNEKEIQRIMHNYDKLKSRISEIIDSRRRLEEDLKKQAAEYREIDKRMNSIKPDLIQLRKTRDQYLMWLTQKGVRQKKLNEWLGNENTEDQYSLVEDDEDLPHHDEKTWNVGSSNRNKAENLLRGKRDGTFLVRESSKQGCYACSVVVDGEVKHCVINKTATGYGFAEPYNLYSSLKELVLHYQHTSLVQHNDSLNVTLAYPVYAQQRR

IC50 ([1]; 1.25 nmol/L ERK2, ATP 1 mmol/L)	IC50 [2, 3]	IC50 (human PI3Kα protein; [4])	IC50 ([1]; ERK2 enzyme assay (2))	IC50 ([2]; ERK2 enzyme assay (1))	IC50 (human PI3Kα protein)	SMILES
< 1000 nM	< 1000 nM	< 1000 nM				CC(C)c1nnc(Nc2ccc3ncc(-c4cnn(CCCN5CCOCC5)c4)cc3n2)s1 [Example 0118]
1000 to 10000 nM	< 1000 nM	< 1000 nM				Cn1cc(-c2cnc3ccc(Nc4nnc(C5CCCC5)s4)nc3c2)c(-c2ccccc2)n1 [Example 0129, 5-cyclopentyl-N-(7-(1-methyl-3-phenyl-1H-pyrazol-4-yl)-1,5-naphthyridin-2-yl)-1,3,4-thiadiazole-2-amine]
			< 1000 nM	< 1000 nM	< 1000 nM	CC(C)Cc1cnnc(Nc2ccc3ncc(-c4cnn(CCCN5CCCC5)c4)cc3n2)c1 [Example 0292]
< 1000 nM	< 1000 nM	< 1000 nM				c1cc(Nc2cnc3ccc(Nc4nnc(C5CCCC5)s4)nc3c2)cnn1 [Example 0088]
< 1000 nM	< 1000 nM	< 1000 nM				c1ncc(Nc2cnc3ccc(Nc4nnc(C5CCCC5)s4)nc3c2)cn1 [Example 0089]
			< 1000 nM	< 1000 nM	< 1000 nM	CCC(C)c1cnnc(Nc2ccc3ncc(-c4cnn(CCCN5CCCC5)c4)cc3n2)c1 (stereo not drawn) [Example 0294]
			< 1000 nM	< 1000 nM	< 1000 nM	c1nc2ccc(Nc3cc(C4CC4)cnn3)nc2cc1-c1cnn(CCCN2CCCC2)c1 [Example 0295, N-(5-cyclopropylpyridazin-3-yl)-7-(1-(3-(pyrrolidin-1-yl)propyl)-1H-pyrazol-4-yl)-1,5-naphthyridine-2-amine]
			< 1000 nM	< 1000 nM	1000 to 10000 nM	CN1CCC(c2nnc(Nc3ccc4ncc(-c5cnn(C)c5)cc4n3)s2)C1 (stereo not drawn) [Example 0252, N-(7-(1-methyl-1H-pyrazol-4-yl)-1,5-naphthyridin-2-yl)-5-(1-methylpyrrolidin-3-yl)-1,3,4-thiadiazole-2-amine]
< 1000 nM	< 1000 nM	< 1000 nM				c1nc2ccc(Nc3cc(C4CCCCC4)cnn3)nc2cc1-c1cnn(CCCN2CCCC2)c1 [Example 0017]
< 1000 nM	< 1000 nM	< 1000 nM				CCCc1nn(C)cc1-c1cnc2ccc(Nc3nnc(C4CCCC4)s3)nc2c1 [Example 0112]
< 1000 nM	< 1000 nM	< 1000 nM				COc1nn(C)cc1-c1cnc2ccc(Nc3nnc(C(C)C)s3)nc2c1 [Example 0131]
< 1000 nM	< 1000 nM	< 1000 nM				Cn1cc(-c2cnc3ccc(Nc4nnc(C5CCCC5)s4)nc3c2)cn1 [Example 0172, 5-cyclopentyl-N-(7-(1-methyl-1H-pyrazol-4-yl)-1,5-naphthyridin-2-yl)-1,3,4-thiadiazole-2-amine]
< 1000 nM	< 1000 nM	< 1000 nM				CC(C)c1nnc(Nc2ccc3ncc(-c4cn(C)nc4-c4cccnc4)cc3n2)s1 [Example 0134]
			< 1000 nM	< 1000 nM	1000 to 10000 nM	COc1cc(-c2cnc3ccc(Nc4cc(C(C)C)cnn4)nc3c2)ccn1 [Example 0588]
< 1000 nM	< 1000 nM	< 1000 nM				CC(C)c1nnc(Nc2ccc3ncc(Nc4ccc(CN5CCOCC5)nc4)cc3n2)s1 [Example 0096]
			< 1000 nM	< 1000 nM	1000 to 10000 nM	C1=C(c2cnc3ccc(Nc4nnc(C5CCCC5)s4)nc3c2)CCOC1 [Example 0327]
			< 1000 nM	< 1000 nM	1000 to 10000 nM	Cc1n[nH]c(C)c1-c1cnc2ccc(Nc3nnc(C4CCCC4)s3)nc2c1 [Example 0215]
			< 1000 nM	< 1000 nM	< 1000 nM	COCCCn1cc(-c2cnc3ccc(Nc4nnc(C5CCCC5)s4)nc3c2)cn1 [Example 0339, 5-cyclopentyl-N-(7-(1-(3-methoxypropyl)-1H-pyrazol-4-yl)-1,5-naphthyridin-2-yl)-1,3,4-thiadiazole-2-amine]

IC50 ([1]; 1.25 nmol/L ERK2, ATP 1 mmol/L)	IC50 [2, 3]	IC50 (human PI3Kα protein; [4])	IC50 ([1]; ERK2 enzyme assay (2))	IC50 ([2]; ERK2 enzyme assay (1))	IC50 (human PI3Kα protein)	SMILES
			< 1000 nM	< 1000 nM	< 1000 nM	c1ccc(Cc2nnc(Nc3ccc4ncc(-c5cnn(CCCN6CCCC6)c5)cc4n3)s2)nc1 [Example 0261]
< 1000 nM	< 1000 nM	< 1000 nM				CCCCc1nn(C)cc1-c1cnc2ccc(Nc3nnc(C4CCCC4)s3)nc2c1 [Example 0115]
			< 1000 nM	< 1000 nM	1000 to 10000 nM	c1nc2ccc(Nc3nnc(C4CCCC4)s3)nc2cc1N1CCOCC1 [Example 0311, 5-cyclopentyl-N-(7-morpholino-1,5-naphthyridin-2-yl)-1,3,4-thiadiazole-2-amine]
< 1000 nM	< 1000 nM	< 1000 nM				Cn1cc(-c2cnc3ccc(Nc4nnc(C5CCCC5)s4)nc3c2)c(C2CC2)n1 [Example 0132]
< 1000 nM	< 1000 nM	< 1000 nM				c1cc(CN2CCOCC2)ncc1Nc1cnc2ccc(Nc3nnc(C4CCCC4)s3)nc2c1 [Example 0085]
< 1000 nM	< 1000 nM	< 1000 nM				COc1cncc(Nc2cnc3ccc(Nc4nnc(C5CCCC5)s4)nc3c2)c1 [Example 0072]
< 1000 nM	< 1000 nM	< 1000 nM				c1nc2ccc(Nc3nnc(C4CCCC4)s3)nc2cc1-c1cnn(CCCN2CCOCC2)c1 [Example 0117]
< 1000 nM	< 1000 nM	< 1000 nM				c1nc2ccc(Nc3nnc(C4CCCC4)s3)nc2cc1N1CCn2cnnc2C1 [Example 0091]
			< 1000 nM	< 1000 nM	< 1000 nM	c1nc2ccc(Nc3nnc(C4CCCC4)s3)nc2cc1-c1cnn(CCCN2CCCC2)c1 [Example 0320]
			< 1000 nM	< 1000 nM	1000 to 10000 nM	CNCc1nn(C)cc1-c1cnc2ccc(Nc3nnc(C(C)C)s3)nc2c1 [Example 0383, 5-isopropyl-N-(7-(1-methyl-3-((methylamino)methyl)-1H-pyrazol-4-yl)-1,5-naphthyridin-2-yl)-1,3,4-thiadiazole-2-amine]
< 1000 nM	< 1000 nM	< 1000 nM				CC(C)Cc1nn(C)cc1-c1cnc2ccc(Nc3nnc(C(C)C)s3)nc2c1 [Example 0138]
10000 to 50000 nM	< 1000 nM	1000 to 10000 nM				c1cc(OC2CCOCC2)ncc1Nc1cnc2ccc(Nc3nnc(C4CCCC4)s3)nc2c1 [Example 0093]
< 1000 nM	< 1000 nM	< 1000 nM				CC(C)c1cnnc(Nc2ccc3ncc(-c4cnn(C)c4)nc3n2)c1 [Example 0014, N-(5-isopropylpyridazin-3-yl)-3-(1-methyl-1H-pyrazol-4-yl)pyrido[2,3-b]pyrazine-6-amine]
			< 1000 nM	< 1000 nM	< 1000 nM	c1nc2ccc(Nc3nnc(CC4CCOC4)s3)nc2cc1-c1cnn(CCCN2CCCC2)c1 (stereo not drawn) [Example 0267]
1000 to 10000 nM	< 1000 nM	10000 to 50000 nM				Cc1ccc(Nc2ccc3ncc(-c4cnn(C)c4)cc3n2)nn1 [Example 0151]
< 1000 nM	< 1000 nM	< 1000 nM				COc1nn(C)cc1-c1cnc2ccc(Nc3nnc(C4CCCC4)s3)nc2c1 [Example 0114]
< 1000 nM	< 1000 nM	< 1000 nM				CC(C)c1nnc(Nc2ccc3ncc(-c4cnn(C)c4)cc3n2)s1 [Example 0167, 5-Isopropyl-N-(7-(1-methyl-1H-pyrazol-4-yl)-1,5-naphthyridin-2-yl)-1,3,4-thiadiazole-2-amine]

From US9783536B2, “Nitrogen-containing heterocyclic compound or salt thereof” (FUJIFILM Corporation, priority 2013, dated 2017)
